Like-named read-outs stand apart in the source and are kept apart here.
Legend:
[1] = biological target: T1, AR-V7 (Homo sapiens, UniProt P10275); experiment: AR-V7 degradation by immunoblotting in CRPC cells; assay type: cell-based
T1 construct: endogenous in cells; host or cells: VCaP, CWR22Rv1
T1 sequence (P10275 1-644 isoform P10275-3): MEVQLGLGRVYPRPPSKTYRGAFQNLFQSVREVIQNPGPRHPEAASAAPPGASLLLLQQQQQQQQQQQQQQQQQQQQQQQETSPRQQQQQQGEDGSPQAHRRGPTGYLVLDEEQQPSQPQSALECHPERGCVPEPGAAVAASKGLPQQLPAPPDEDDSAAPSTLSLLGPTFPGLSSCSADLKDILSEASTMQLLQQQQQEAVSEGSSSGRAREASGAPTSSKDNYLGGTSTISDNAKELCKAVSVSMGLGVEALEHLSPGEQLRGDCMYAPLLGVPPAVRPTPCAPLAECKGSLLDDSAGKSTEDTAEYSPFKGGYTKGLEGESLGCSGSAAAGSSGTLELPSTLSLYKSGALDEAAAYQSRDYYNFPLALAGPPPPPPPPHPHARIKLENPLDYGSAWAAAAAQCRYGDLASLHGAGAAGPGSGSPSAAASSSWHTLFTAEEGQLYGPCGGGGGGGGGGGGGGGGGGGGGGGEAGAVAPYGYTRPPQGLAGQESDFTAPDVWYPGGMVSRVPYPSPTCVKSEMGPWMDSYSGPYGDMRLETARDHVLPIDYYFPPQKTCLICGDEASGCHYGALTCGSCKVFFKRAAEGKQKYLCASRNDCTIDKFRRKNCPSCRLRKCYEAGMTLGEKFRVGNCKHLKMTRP
Description: Cell lysis, Western blotting, and AR ubiquitination were performed as described in [17]. Primary antibodies: AR (Millipore 06-680), AR-V7 (RevMAb Biosciences 31-1109-00), PSA (ABclonal A4355), NKX3-1 (Cell Signaling Technology 92998), GAPDH (Cell Signaling Technology 2118) and β-Actin (Sigma-Aldrich A5441).
Fig. 1 ITRI-148 induces degradation of both AR and AR-V7 proteins in CRPC cells. […] (B) Expression of Flag-tagged AR-V7 in 293T cells following ITRI-148 treatment. Cells transiently expressing Flag-AR-V7 were pretreated with 50 μg/mL cycloheximide for 1 hour, then exposed to ITRI-148 at the indicated concentrations for 8 hours. AR-V7 expression was detected using an anti-Flag antibody. (C) Representative immunoblots showing AR protein levels in VCaP and CWR22Rv1 cells after 48 hours of ITRI-148 treatment. An N-terminal AR antibody was used to detect both full-length AR and LBD-truncated variants (AR-V(ΔLBD)) in CWR22Rv1 cells, while AR-V7 was detected using an AR-V7-specific antibody. DC₅₀ values were calculated from normalized band intensities, and Dₘₐₓ represents the maximal degradation achieved at 10 μM ITRI-148. (D) Immunofluorescence staining of AR after 24 or 48 hours of ITRI-148 treatment, detected using an N-terminal AR antibody. […] (F) Western blot analysis of ectopically expressed wild-type (WT) and mutant Myc-tagged AR in DU145 cells following 24 hours of treatment with 10 μM ITRI-148. Quantified AR levels are as indicated. TEXT PRINTED IN THE PICTURE: (C) ITRI-148: DC50 (μM) AR CWR22Rv1: 1.23 ± 1.86; DC50 (μM) AR VCaP: 0.05 ± 0.03; DC50 (μM) AR-V7 CWR22Rv1: 1.20 ± 0.92; DC50 (μM) AR-V7 VCaP: 0.02 ± 0.02; Dmax (%) AR CWR22Rv1: 65.02 ± 19.91; Dmax (%) AR VCaP: 80.49 ± 5.61; Dmax (%) AR-V7 CWR22Rv1: 72.10 ± 3.15; Dmax (%) AR-V7 VCaP: 91.36 ± 2.05

[2] = biological target: T2, AR(L702H) (Homo sapiens, UniProt P10275, L702H); experiment: Degradation of ectopic Myc-tagged AR mutant in DU145 cells (western blot); assay type: cell-based; details: 10 μM, 24 hours
T2 construct: expressed in transfected cells; host or cells: DU145
T2 sequence (P10275 1-920 L702H): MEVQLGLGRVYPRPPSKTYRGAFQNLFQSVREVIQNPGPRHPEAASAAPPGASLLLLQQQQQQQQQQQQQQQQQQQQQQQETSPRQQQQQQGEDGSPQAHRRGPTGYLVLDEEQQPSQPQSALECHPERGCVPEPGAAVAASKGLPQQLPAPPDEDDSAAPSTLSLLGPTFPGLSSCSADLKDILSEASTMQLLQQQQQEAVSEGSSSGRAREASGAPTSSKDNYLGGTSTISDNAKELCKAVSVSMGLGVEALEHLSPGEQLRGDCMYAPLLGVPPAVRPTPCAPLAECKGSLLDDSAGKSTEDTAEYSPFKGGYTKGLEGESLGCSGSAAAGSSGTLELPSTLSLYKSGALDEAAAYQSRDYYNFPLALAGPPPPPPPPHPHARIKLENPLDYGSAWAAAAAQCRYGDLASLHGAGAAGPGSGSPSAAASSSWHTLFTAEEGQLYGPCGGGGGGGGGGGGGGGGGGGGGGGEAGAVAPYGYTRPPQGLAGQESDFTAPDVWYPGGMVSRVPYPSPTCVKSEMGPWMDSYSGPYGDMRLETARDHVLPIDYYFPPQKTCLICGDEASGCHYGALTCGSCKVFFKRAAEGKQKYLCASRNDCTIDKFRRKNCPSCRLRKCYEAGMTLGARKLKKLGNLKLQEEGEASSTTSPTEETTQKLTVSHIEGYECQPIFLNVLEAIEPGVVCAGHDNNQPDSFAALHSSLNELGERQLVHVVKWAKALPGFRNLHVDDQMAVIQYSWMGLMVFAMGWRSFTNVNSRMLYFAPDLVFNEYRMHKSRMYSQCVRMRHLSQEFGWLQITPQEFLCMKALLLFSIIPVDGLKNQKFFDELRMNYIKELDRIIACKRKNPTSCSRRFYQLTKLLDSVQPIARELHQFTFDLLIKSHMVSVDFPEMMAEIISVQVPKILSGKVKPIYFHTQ
Text: pLenti4/TO/Flag-AR and pLenti4/TO/Flag-AR(∆LBD) plasmids are as described previously. To generate pLenti4/TO/Flag-AR-V7 plasmid, the DNA fragment of AR-V7 was amplified from pEGFP-C1-AR V7, a gift from Michael A Mancini (Addgene plasmid # 86856), and inserted into the pLenti4/TO plasmid carrying a N-terminal Flag tag between BamH1 and XhoI. The AR(L702H) and AR(H875Y) mutants were generated by site-directed mutagenesis of pCMV-Myc-AR, which is previously constructed and described in [22]. Primers used in the cloning and mutagenesis are: […]
Cell lysis, Western blotting, and AR ubiquitination were performed as described in [17]. […]
Fig. 1 ITRI-148 induces degradation of both AR and AR-V7 proteins in CRPC cells. […] AR-V7 expression was detected using an anti-Flag antibody. […] An N-terminal AR antibody was used to detect both full-length AR and LBD-truncated variants (AR-V(ΔLBD)) in CWR22Rv1 cells, while AR-V7 was detected using an AR-V7-specific antibody. DC₅₀ values were calculated from normalized band intensities, and Dₘₐₓ represents the maximal degradation achieved at 10 μM ITRI-148. (D) Immunofluorescence staining of AR after 24 or 48 hours of ITRI-148 treatment, detected using an N-terminal AR antibody. […] Quantified AR levels are as indicated. […]

[3] = VCaP, maximal degradation at 10 μM

**Q.** `O=C1CCC(N2C(=O)c3cccc(NCC(=O)N4CCC(N5CCC(C#Cc6ccc(C7CCN(C8=Nn9c(nnc9C(F)(F)F)CC8)CC7)cc6)CC5)CC4)c3C2=O)C(=O)N1` (stereo not shown) [ITRI-148] was tested. Which DC50 ([1]; CWR22Rv1, 48 hours, read-out: DC50 AR-V7) did it give?
**A.** 1200 ± 920 nM

**Q.** And the Dmax at 10 µM ([1]; CWR22Rv1, CWR22Rv1, maximal degradation at 10 μM)?
**A.** 72.1 ± 3.15%

**Q.** And the DC50 ([1]; VCaP cells, read-out: half-maximal degradation concentration (DC50) for AR-V7)?
**A.** ~20 nM

**Q.** And the DC50 ([1]; VCaP, 48 hours, read-out: DC50 AR-V7)?
**A.** 20 ± 20 nM

**Q.** What about the “Dmax AR-V7” value [1, 3] of the same molecule?
**A.** 91%

**Q.** And the Dmax at 10 µM [1, 3]?
**A.** 91.4 ± 2.05%

**Q.** And the “degradation of Myc-tagged AR mutant L702H” value [2]?
**A.** degraded

From publication PMC12661400, “Oral bioavailable ITRI-148 degrades androgen receptor variants and overcomes antiandrogen resistance in advanced prostate cancer” (Neoplasia (New York, N.Y.), 2025)
